# Molecular target: T1, full-length recombinant human NEK7 (Homo sapiens, UniProt Q8TDX7)
# T1 construct: full-length recombinant human NEK7; GST (N); purchased SignalChem N09-10G; host or cells: Sf9 insect cells (baculovirus)
# Test: NEK7 enzymatic assay ([33P]-ATP, casein substrate)
# Format: biochemical
# Details: Table 2a; recombinant human NEK7, casein substrate
# Protocol: In some embodiments, the IC50 of the compounds of Structure (I), (Ia), (Ib), (Ic), (Id), (Ie), or (If) to inhibit NEK7 was determined by the concentration of the compound required to inhibit 50% of the activity of the NEK kinase.
# (§1) Casein substrate (from bovine milk, hydrolyzed and partially dephosphorylated mixture of α, β and κ caseins, obtained from Sigma Aldrich, catalogue #C4765, diluted in distilled water to a final concentration of 1 mg/mL) and full-length recombinant human NEK7 (expressed by baculovirus in Sf9 insect cells using a N-terminal GST tag, obtained from SignalChem, catalogue #N09-10G, 0.1 μg/μL) were mixed in assay buffer (20 mM Hepes pH 7.5, 10 mM MgCl2, 1 mM EGTA, 0.02% Brij35, 0.02 mg/ml BSA, 0.1 mM Na3 VO4, 2 mM DTT, 1% DMSO). Compounds of interest (serial 3-fold dilution in DMSO from 10 μM to 0.5 nM) or vehicle (1% DMSO) were dispensed into the kinase reaction mixture by Acoustic technology (Echo550, nanoliter range). After incubation at room temperature for 20 minutes, the kinase reaction was initiated by addition of [^33P]-ATP (specific activity 10 μCi/μl) and the mixture was incubated at room temperature for 2 hours. The reaction was then stopped by spotting the reaction mixture on strips of phosphocellulose P81 paper. Following washing, the radioactivity of the P81 paper was measured and kinase activity data were expressed as the percent remaining kinase activity in test samples compared to vehicle reactions. IC50 values and curve fits were obtained using Prism (GraphPad Software).
# as §1, with “μg/L)” for “μg/μL)”, “Na3VO4,” for “Na3 VO4,”, “(Echo550;” for “(Echo550,”
# T1 sequence (Q8TDX7 whole entry): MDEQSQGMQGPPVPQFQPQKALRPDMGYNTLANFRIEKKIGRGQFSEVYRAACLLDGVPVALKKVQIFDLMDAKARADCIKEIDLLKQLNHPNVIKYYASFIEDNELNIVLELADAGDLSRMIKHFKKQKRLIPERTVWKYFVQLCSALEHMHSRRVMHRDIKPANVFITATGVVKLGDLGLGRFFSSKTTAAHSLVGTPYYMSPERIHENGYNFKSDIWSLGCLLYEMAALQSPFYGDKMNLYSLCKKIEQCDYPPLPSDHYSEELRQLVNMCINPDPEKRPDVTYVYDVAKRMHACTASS
row,SMILES,IC50
1,"Cn1nc(-c2ccc(NC(=O)Nc3cc(C(C)(C)C)no3)c(F)c2)c2c(N)ncnc21 [Ia-29, 1-(4-(4-amino-1-methyl-1H-pyrazolo[3,4-d]pyrimidin-3-yl)-2-fluorophenyl)-3-(3-(tert-butyl)isoxazol-5-yl)urea]",< 0.15 µM
2,"CC(C)n1nc(-c2ccc(NC(=O)Nc3cc(C(C)(C)C)no3)c(F)c2)c2c(N)ncnc21 [Ia-11, 1-(4-(4-amino-1-isopropyl-1H-pyrazolo[3,4-d]pyrimidin-3-yl)-2-fluorophenyl)-3-(3-(tert-butyl)isoxazol-5-yl)urea]",< 0.15 µM

# Now from value to compound:
row,IC50,SMILES
1,0.151 to 0.3 µM,"CC(C)(C)c1cc(NC(=O)Nc2ccc(-c3nn(C4CCC4)c4ncnc(N)c34)cc2)on1 [Ia-7, 1-(4-(4-amino-1-cyclobutyl-1H-pyrazolo[3,4-d]pyrimidin-3-yl)phenyl)-3-(3-(tert-butyl)isoxazol-5-yl)urea]"
2,0.151 to 0.3 µM,"CC(C)(c1cc(NC(=O)Nc2ccc(-c3nn(C4CC4)c4ncnc(N)c34)cc2F)on1)C(F)(F)F [Ia-22, 1-(4-(4-amino-1-cyclopropyl-1H-pyrazolo[3,4-d]pyrimidin-3-yl)-2-fluorophenyl)-3-(3-(1,1,1-trifluoro-2-methylpropan-2-yl)isoxazol-5-yl)urea]"
3,< 0.15 µM,"CC(C)(C)c1cc(NC(=O)Nc2ccc(-c3nn(C4CCC4)c4ncnc(N)c34)cc2F)on1 [Ia-8, 1-(4-(4-amino-1-cyclobutyl-1H-pyrazolo[3,4-d]pyrimidin-3-yl)-2-fluorophenyl)-3-(3-(tert-butyl)isoxazol-5-yl)urea]"
4,0.151 to 0.3 µM,"CC(C)(C)c1cc(NC(=O)Nc2ccc(-c3nn(C4CCS(=O)(=O)C4)c4ncnc(N)c34)cc2F)on1 (stereo not drawn) [Ia-18, 1-(4-(4-amino-1-(1,1-dioxdotetrahydrothiophen-3-yl)-1H-pyrazolo[3,4-d]pyrimidin-3-yl)-2-fluorophenyl)-3-(3-(tert-butyl)isoxazol-5-yl)urea]"

# Same assay, conditions: Table 2b; recombinant human NEK7, casein substrate
row,IC50,SMILES
1,> 1.5 µM,"CC(C)(C)c1cc(NC(=O)Cc2ccc(Oc3ccnc4[nH]cc(Cl)c34)cc2F)n(-c2ccccc2)n1 [Ib-22, N-(3-(tert-butyl)-1-phenyl-1H-pyrazol-5-yl)-2-(4-((3-chloro-1H-pyrrolo[2,3-b]pyridin-4-yl)oxy)-2-fluorophenyl)acetamide]"
2,> 1.5 µM,"Cc1cc(NC(=O)Nc2ccc(Oc3ccnc4[nH]cc(Cl)c34)cc2F)n(-c2ccccc2)n1 [Ib-10, 1-(4-((3-chloro-1-pyrrolo[2,3-b]pyridin-4-yl)oxy)-2-fluorophenyl)-3-(3-methyl-1-phenyl-1H-pyrazol-5-yl)urea]"
3,> 1.5 µM,"CN1CCC(n2nc(C(C)(C)C)cc2NC(=O)Nc2ccc(Oc3ccnc4[nH]cc(Cl)c34)cc2F)CC1 [Ib-21, 1-(3-(tert-butyl)-1-(1-methylpiperidin-4-yl)-1H-pyrazol-5-yl)-3-(4-((3-chloro-1H-pyrrolo[2,3-?]pyridin-4-yl)oxy)-2-fluorophenyl)urea]"
4,> 1.5 µM,CC(C)(C)c1cc(NC(=O)Nc2cc(F)c(Oc3ccnc4[nH]cc(Cl)c34)cc2F)n(-c2ccccc2)n1 [Ib-15]
5,> 1.5 µM,"CC(C)(C)c1cc(NC(=O)NC2CCC(Oc3ccnc4[nH]cc(Cl)c34)CC2)n(-c2ccccc2)n1 (stereo not drawn) [Ib-20, 1-(3-(tert-butyl)-1-phenyl-1H-pyrazol-5-yl)-3-(4-((3-chloro-1H-pyrrolo[2,3-b]pyridin-4-yl)oxy)cyclohexyl)urea]"
6,> 1.5 µM,"CC(C)(C)c1cc(NC(=O)Nc2ccc(Oc3ccnc4[nH]ccc34)c(C(F)(F)F)c2)n(-c2ccccc2)n1 [Ib-2, 1-(4-((1H-pyrrolo[2,3-]pyridin-4-yl)oxy)-3-(TRIFLUOROMETHYL)phenyl)-3-(3-(tert-butyl)-1-phenyl-1H-pyrazol-5-yl)urea]"

# Same assay, conditions: Table 2e; recombinant human NEK7, casein substrate
row,SMILES,IC50
1,"CN(C)Cc1ccc(NC(=O)Nc2ccc(Oc3ccnc4[nH]cc(Cl)c34)cc2F)cc1C(F)(F)F [Ie-7, 1-(4-((3-chloro-1H-pyrrolo[2,3-b]pyridin-4-yl)oxy)-2-fluorophenyl)-3-(4-((dimethylamino)methyl)-3-(trifluoromethyl)phenyl)urea]",> 1.5 µM
2,"O=C(Nc1ccc(CN2CCOCC2)c(C(F)(F)F)c1)Nc1ccc(Oc2ccnc3[nH]cc(Cl)c23)cc1F [Ie-4, 1-(4-((3-Chloro-1H-pyrrolo[2,3-b]pyridin-4-yl)oxy)-2-fluorophenyl)-3-(4-(morpholinomethyl)-3-(trifluoromethyl)phenyl)UR EA]",> 1.5 µM
3,"CN(C)C1CCN(Cc2ccc(NC(=O)Nc3ccc(Oc4ccnc5[nH]cc(Cl)c45)cc3F)cc2C(F)(F)F)C1 (stereo not drawn) [Ie-21, 1-(4-((3-chloro-1H-pyrrolo[2,3-b]pyridin-4-yl)oxy)-2-fluorophenyl)-3-(4-((3-(dimethylamino)pyrrolidin-1-yl)methyl)-3-(trifluoromethyl)phenyl)urea]",> 1.5 µM

# Second part, the compound after the results:
row,IC50,SMILES
1,> 1.5 µM,"O=C(Nc1ccc(CN2CCN(CCO)CC2)c(C(F)(F)F)c1)Nc1ccc(Oc2ccnc3[nH]cc(Cl)c23)cc1F [Ie-41, 1-(4-((3-chloro-1H-pyrrolo[2,3-b]pyridin-4-yl)oxy)-2-fluorophenyl)-3-(4-((4-(2-hydroxyethyl)piperazin-1-yl)methyl)-3-(trifluoromethyl)phenyl)urea]"
2,> 1.5 µM,"CN1CCN(Cc2ccc(NC(=O)Nc3ccc(Oc4ccnc5[nH]cc(Cl)c45)cc3F)cc2Cl)CC1 [Ie-12, 1-(4-((3-chloro-1H-pyrrolo[2,3-b]pyridin-4-yl)oxy)-2-fluorophenyl)-3-(3-chloro-4-((4-methylpiperazin-1-yl)methyl)phenyl)urea]"
3,> 1.5 µM,"O=C(Nc1ccc(CN2CCOCC2)c(F)c1)Nc1ccc(Oc2ccnc3[nH]cc(Cl)c23)cc1F [Ie-2, 1-(4-((3-chloro-1H-pyrrolo[2,3-b]pyridin-4-yl)oxy)-2-fluorophenyl)-3-(3-fluoro-4-(morpholinomethyl)phenyl)urea]"

# Same assay, conditions: Table 2d; recombinant human NEK7, casein substrate
row,IC50,SMILES
1,< 0.15 µM,CN(C)C1CCN(Cc2ccc(NC(=O)Nc3ccc(-c4cn(C5CC5)c5ncnc(N)c45)cc3F)cc2C(F)(F)F)CC1 [Id-68]
2,> 1.5 µM,"COc1cc(CN2CCN(C)CC2)ccc1NC(=O)Nc1ccc(-c2cn(C3CC3)c3ncnc(N)c23)cc1F [Id-52, 1-(4-(4-amino-7-cyclopropyl-7H-pyrrolo[2,3-d]pyrimidin-5-yl)-2-fluorophenyl)-3-(2-methoxy-4-((4-methylpiperazin-1-yl)methyl)phenyl)urea]"
3,0.151 to 0.3 µM,"CN1CCN(Cc2ccc(NC(=O)Nc3ccc(-c4cn(C5CC5)c5ncnc(N)c45)cc3Cl)cc2C(F)(F)F)CC1 [Id-34, 1-(4-(4-amino-7-cyclopropyl-7H-pyrrolo[2,3-d]pyrimidin-5-yl)-2-chlorophenyl)-3-(4-((4-methylpiperazin-1-yl)methyl)-3-(trifluoromethyl)phenyl)urea]"
4,0.301 to 0.5 µM,"CN1CCN(Cc2ccc(NC(=O)Nc3ccc(-c4cn(C5CC5)c5ncnc(N)c45)cc3F)cc2F)CC1 [Id-35, 1-(4-(4-amino-7-cyclopropyl-7H-pyrrolo[2,3-d]pyrimidin-5-yl)-2-fluorophenyl)-3-(3-fluoro-4-((4-methylpiperazin-1-yl)methyl)phenyl)urea]"
5,0.501 to 1.5 µM,"Cc1cn(-c2ccc(NC(=O)Nc3ccc(-c4cn(C5CC5)c5ncnc(N)c45)cc3F)cc2C(F)(F)F)cn1 [Id-45, 1-(4-(4-amino-7-cyclopropyl-7H-pyrrolo[2,3-d]pyrimidin-5-yl)-2-fluorophenyl)-3-(4-(4-methyl-1H-imidazol-1-yl)-3-(trifluoromethyl)phenyl)urea]"
6,< 0.15 µM,CN1CCN(Cc2ccc(NC(=O)Nc3ncc(-c4cn(C5CC5)c5ncnc(N)c45)cc3F)cc2C(F)(F)F)CC1 [Id-66]
7,< 0.15 µM,"CCN1CCN(Cc2ccc(NC(=O)Nc3ccc(-c4cn(C5CC5)c5ncnc(N)c45)cc3Cl)cc2C(F)(F)F)CC1 [Id-54, 1-(4-(4-amino-7-cyclopropyl-7H-pyrrolo[2,3-d]pyrimidin-5-yl)-2-chlorophenyl)-3-(4-((4-ethylpiperazin-1-yl)methyl)-3-(trifluoromethyl)phenyl)urea]"
8,> 1.5 µM,CCN1CCN(Cc2ccc(NC(=O)Nc3ccc(-c4cn(C5CC5)c5ncnc(N)c45)cc3F)cc2)CC1 [Id-57]

# Same assay, conditions: comparative compounds of Structure (II)
row,IC50,SMILES
1,> 1.5 µM,"Cc1c(CC(=O)N2CCc3c2ccc(-c2nn(C(C)C)c4ncnc(N)c24)c3F)cccc1C(F)(F)F [II-6, 1-(5-(4-amino-1-isopropyl-1H-pyrazolo[3,4-d]pyrimidin-3-yl)-4-fluoroindolin-l-yl)-2-(2-methyl-3-(trifluoromethyl)phenyl)ethan-1-one]"

# — patent publication US20230210853A1 (Halia Therapeutics, Inc., priority 2020, published 2023)
